“And” between values parts separate entries of the source, which are not always exact repeats. Identical values can stand only once.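 Briefly, cells in 96-well plates were exposed to five compound concentrations for 48 h, and endpoints were estimated by linear interpolation. GI50 marks 50% less growth. TGI denotes the concentration required for complete inhibition of growth.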
Tests used:
Experiment in all cases: NCI tumour cell line growth inhibition, 48 h
[1] = tested on: DLD-1 colon
[2] = tested on: DMS 273 small cell lung
[3] = tested on: HOP-18 NSCLC
[4] = tested on: KM20L2 colon
[5] = tested on: LXFL 529 NSCLC
[6] = tested on: M19-MEL melanoma
[7] = tested on: RXF-631 renal
[8] = tested on: SNB-78 CNS
[9] = tested on: 786-0 renal
[10] = tested on: LOX IMVI melanoma
[11] = tested on: MDA-MB-231 breast
[12] = tested on: MDA-N
[13] = tested on: PC-3 prostate
[14] = tested on: P388 leukemia
[15] = tested on: P388/ADR leukemia
[16] = tested on: SN12K1 renal
[17] = tested on: XF 498 CNS
[18] = tested on: DMS 114 small cell lung

SMILES | TGI [1] [µM] | TGI [2] [µM] | TGI [3] [µM] | TGI [4] [µM] | TGI [6] [µM] | TGI [8] [µM] | TGI [9] [µM] | TGI [10] [µM] | TGI [11] | TGI [12] [µM] | TGI [13] | other results
OCC1O[C@H](O[C@@H]2CCCN3CC(O)C(O)[C@@H]23)C(O)C(O)C1O (some centres undefined) | > 100 | > 100 | > 100 | > 100 | > 100 | > 100 | – | – | – | – | – | TGI [5]: > 100 µM; TGI [7]: > 100 µM
Nc1nc(Nc2ccc(Cl)c(Cl)c2)nc2nc[nH]c12 | – | – | – | – | – | – | 31.3 | 36.9 | 31.3 µM | 33.5 | 41.2 µM | –
N#C/C(=C\c1ccncc1)c1csc2ccccc12 | 96.9 | 73.6 | 99.7 | 54.6 | > 91.2 | 73.8 | – | 47.9 | – | – | – | TGI [14]: 39.2 µM; TGI [15]: 25.2 µM; TGI [16]: > 77.7 µM; TGI [17]: 46.3 µM
CN(C)CCNc1ccc2ncn3c4ccccc4c(=O)c1c23 | 12.8 | – | 33 | 13.6 | 12.6 | 19.8 | 13.9 | 2.92 | – | – | – | TGI [18]: 13.7 µM; TGI [5]: 19.2 µM
CCCCCC(=O)N[C@@H](c1ccco1)[C@@H](O)C(=O)O[C@H]1C[C@@]2(O)[C@@H](OC(=O)c3ccccc3)[C@@H]3[C@]4(OC(C)=O)CO[C@@H]4C[C@H](O)[C@@]3(C)C(=O)[C@H](OC(C)=O)C(=C1C)C2(C)C | – | – | – | – | – | – | – | – | – | – | – | GI50 [11]: 0.00211 µM
O=C(Nc1ccc([N+](=O)[O-])cc1)Nn1cnnc1 | – | – | – | – | – | – | – | > 100 | – | > 100 | > 100 µM | –
O=C1OC(c2ccccc2)=NC1c1ccccc1 (centres undefined) | – | – | – | – | – | – | > 100 | > 100 | > 100 µM | > 100 | > 100 µM | –
C[N+](C)(CCCCCC[N+](C)(C)CCCN1C(=O)c2cccc3cccc(c23)C1=O)CCCN1C(=O)c2cccc3cccc(c23)C1=O | – | – | – | – | – | – | – | > 100 | > 100 µM | > 100 | > 100 µM | –
O=C1C(Cl)N(c2c(Cl)cccc2Cl)C1c1c[nH]c2ccccc12 (centres undefined) | > 100 | – | – | > 100 | > 100 | – | – | – | – | – | – | TGI [5]: > 100 µM; TGI [17]: > 100 µM
CCNC(=O)C(C)C1CCC2(C)C=CC(=O)C(C)=C2C1O (centres undefined) | > 100 | > 100 | > 100 | > 100 | > 100 | > 100 | – | > 100 | – | – | – | TGI [18]: > 100 µM; TGI [14]: > 100 µM; TGI [15]: > 100 µM; TGI [16]: > 100 µM; TGI [17]: > 100 µM
CC(C)=CCCC(C)(OC1OC(CO)C(O)C(O)C1O)C1CCC2(C)C1C(O)CC1C3(C)CCC(O)C(C)(C)C3C(OC3OC(CO)C(O)C(O)C3OC3OC(C)C(O)C(O)C3O)CC12C (centres undefined) (tested in a mixture with another compound) | – | – | – | – | – | – | > 75 | > 75 | > 75 µM | > 75 | > 75 µM | –
O=NN1C(c2ccccc2)CNC(=O)CC1c1ccccc1 (centres undefined) | > 100 | > 100 | > 100 | 63.5 | > 100 | > 100 | – | > 100 | – | – | – | TGI [18]: 59.3 µM; TGI [14]: 62.3 µM; TGI [15]: 63.5 µM; TGI [16]: > 100 µM
FC(F)(F)c1ccc2c(c1)N(CCCNCCN1CCOCC1)c1ccccc1S2 | 33.7 | 36.7 | – | 17 | 22.5 | 23.8 | – | 21.2 | – | – | – | TGI [5]: 25.6 µM; TGI [17]: 15.2 µM
Cc1c(O)c(=O)ccn1CCN | > 100 | > 100 | > 100 | > 100 | > 100 | > 100 | > 100 | > 100 | – | – | – | TGI [18]: > 100 µM; TGI [5]: > 100 µM; TGI [7]: > 100 µM
CC(CSC(=N)N)C(N)=O (centres undefined) | – | – | – | – | – | – | > 100 | > 100 | > 100 µM | > 100 | > 100 µM | –
S=c1sc2c(s1)SC(c1ccccc1)CS2 (centres undefined) | > 100 | > 100 | > 100 | > 100 | > 100 | > 100 | – | > 100 | – | – | – | TGI [18]: > 100 µM; TGI [14]: > 100 µM; TGI [15]: > 100 µM; TGI [16]: > 100 µM
COc1ccccc1/C=C(/C)[N+](=O)[O-] | – | – | – | – | – | – | > 100 | 2.1 | 17.7 µM and 7.87 µM | – | 6.5 µM and 5.37 µM | GI50 [10]: 0.263 µM
Brc1ccc(C2C3CSc4ccccc4C3=NN2c2ccccc2)cc1 (centres undefined) | – | – | – | – | – | – | > 100 | > 100 | > 100 µM | > 100 | > 100 µM | –
O=C(NN1C(=O)C(Cl)C1c1ccccc1O)c1ccccc1O (centres undefined) | – | – | – | > 100 | – | – | – | – | – | – | – | TGI [18]: 55.2 µM; TGI [5]: > 100 µM
COc1cc(OC2OC(CO)C(O)C(O)C2O)c2c(O)c3c(=O)cc(C)oc3cc2c1 (centres undefined) | – | – | – | – | – | – | – | > 100 | – | – | > 100 µM | –
Cc1ccc(/C=C2\Sc3scc(-c4ccccc4)[n+]3C2=O)cc1 | – | – | – | – | – | – | > 56 | > 54.5 | 65 µM | > 67.1 | > 100 µM | –
OCC#CCNCl | > 100 | > 100 | > 100 | > 100 | > 100 | > 100 | – | > 100 | – | – | – | TGI [18]: > 100 µM; TGI [14]: > 100 µM; TGI [15]: > 100 µM; TGI [16]: > 100 µM; TGI [17]: > 95.2 µM
CC(C)(O)/C1=C/C=C/CCCCCCCCCC1 | – | – | – | – | – | – | – | > 100 | > 100 µM | > 100 | > 100 µM | –
O=[N+]([O-])C(=C/c1ccccc1)/C(=C\c1ccccc1)[N+](=O)[O-] | – | – | – | – | – | – | – | 29.1 | 26.2 µM | 33.1 | 44.7 µM | –

From PubChem BioAssay (NCI)
